Measurements as given in PubChem BioAssay AID1626 (SRMLSC, 2009).

Test system: M. tuberculosis H37Rv growth inhibition
Assay: M. tuberculosis H37Rv growth inhibitors, H37Rv strain (AID 1626)
Conditions: for IC90: measured here: IC90 against H37Rv; for CC50: measured here: Vero cell cytotoxicity

SMILES	IC50 [µM]	IC90 [µM]	CC50 [µM]
CCOC(=O)c1ccc2ncc(C(=O)OCC)c(Nc3ccc(N4CCOCC4)cc3)c2c1	10.9	22.7	> 40
Nc1nc2ccccc2n1C(=O)c1ccccc1	21.9	> 100	> 40
Cc1cc(N2C3CCC2CC(O)(c2ccc(F)cc2)C3)nc(-c2ccccc2)n1 (stereo unspecified)	31.6	> 100	> 40
O=C1CCCC(O)=C1C=Nc1ccc2c(c1)oc1ccccc12	< 0.195	> 100	–
Cn1cc(C(=O)CCl)c2ccccc21	1.6	4.01	10.9
Nc1ccc(C(=O)O)c(O)c1	< 0.195	> 100	–
COc1ccc2c(c1)CCc1c-2nc2ccccc2c1N1CCOCC1	11.5	18.6	> 40
CCC(=O)OCCNc1cc(SCCC(=O)OC)c2nonc2c1[N+](=O)[O-]	12.2	19.5	–
CCc1ccc(Nc2nnc(SCC(=O)Nc3cccnc3Cl)s2)cc1	5.02	13.6	–
CCOC(=O)c1ccc(N2CSC3=C(C#N)C(c4ccc(OC)cc4OC)CC(=O)N3C2)cc1 (stereo unspecified)	41.8	> 100	–
O=C(/C=C/c1ccc(Cl)cc1)c1cccnc1	2.01	4.7	28.5
CCc1ccc(NC(=O)c2cnc(N3CCN(c4ccccn4)CC3)c3ccccc23)cc1	0.444	5.71	> 40
COC(=O)CSc1nnc(-c2ccc(OC)cc2OC)o1	1.76	4.54	–
COc1ccc(/C=c2\s/c(=C\C(=O)C(C)(C)C)[nH]c2=O)cc1O	5.62	7.63	25.3
Cc1ccc(NC(=O)CNCc2ccccc2)cc1Br	32.3	> 100	–
O=C(O)c1[nH]c(=O)[nH]c(=O)c1F	6.62	18.4	> 40
O=C(/C=C/c1ccc2c(c1)OCO2)c1c(O)n(CCc2ccccc2)c(=O)[nH]c1=O	6.87	9.99	27.4
COC(=O)c1nc(-c2ccc3c(n2)C(=O)C(N)=C(OC)C3=O)c(N)c(-c2ccc(OC)c(OC)c2O)c1C	–	> 100	1.35
COC(=O)C1C(O)=C(C=Nc2ccc3ccccc3c2)C(=O)CC1(C)C (stereo unspecified)	33.7	> 100	–
COc1ccc2c(c1)sc(=N)n2C	8.91	11.7	> 40
Cc1ccc(OCCCc2c(C)n[nH]c2C)cc1	16.8	> 100	–

SMILES	IC50 [µM]	IC90 [µM]	CC50 [µM]
CCC(=O)c1ccc(OCC(=O)Nc2ccc3nc(C)sc3c2)cc1	6.26	> 100	–
Nc1nc(-c2cccc(Br)c2)cs1	23.8	> 100	–
Cc1ccc(C)c(SCC(=O)OC/C(O)=C(\C#N)c2nc3ccccc3[nH]2)c1	3.09	4.9	> 40
Nc1nc(CN2CCN(C(c3ccccc3)c3ccccc3)CC2)nc(Nc2ccccc2)n1	36.4	> 100	> 40
Cc1nc(N2CCN(Cc3ccc4c(c3)OCO4)CC2)c2cc(-c3ccccc3)sc2n1	5.39	6.08	> 40
CCOC(=O)CSc1cccc2cccnc12	–	–	30.7
COc1cccc2c1C(=O)c1c(O)c3c(c(O)c1C2=O)C[C@@](O)(C(=O)CO)C[C@@H]3O[C@H]1C[C@H](N)[C@H](O)[C@H](C)O1	13	> 100	7.25
CCOC(=O)CSc1nnc(-c2ccc(NS(=O)(=O)c3ccc(C)cc3)cc2)o1	2.27	5.26	–
CC(=O)N1CCN(c2cc3c(cc2F)c(=O)c(C(=O)O)cn3C2CC2)CC1	0.949	1.56	–
O=[N+]([O-])c1cc(CN2CCCC2)ccc1Sc1ccc(Cl)cc1	29.8	> 100	> 40
CCCCCCn1c(=O)c(C(=O)Nc2nc(CC(=O)OCC)cs2)c(O)c2ccccc21	< 0.195	< 0.195	4.53
O=C(OCC#CCSc1nc2ccccc2o1)c1ccco1	4.27	12.4	–
COc1cc(OC)c2c(-c3ccccc3)cc(=O)oc2c1C(CCN1CCCC(C)C1)c1ccc(N(C)C)cc1 (stereo unspecified)	4.18	5.41	17.1
O=C(OCC(=O)N1CCc2ccccc21)c1ccc(Cl)nc1	14.2	> 100	–
CN1CCN(c2nc(-c3ccccc3)nc(-c3ccc(F)cc3)c2C#N)CC1	23.9	> 100	> 40
COc1ccc(/C=C2\SC(=N)N(c3nccs3)C2=O)cc1OC	< 0.195	> 100	17.9
O=C(CCSc1nnc(-c2ccccc2)o1)N1CCOCC1	13	18	–
O=C(NCCCn1ccnc1)c1nn2c(C(F)(F)F)cc(-c3ccc(Br)cc3)nc2c1Cl	6.53	9.35	> 40
COc1ccc(Br)cc1C(C[N+](=O)[O-])c1c(N)n(C)c(=O)n(C)c1=O (stereo unspecified)	8.08	12.5	9.3
O=c1[nH]c(-c2ccccn2)nc(C(F)(F)F)c1Br	0.487	1.02	33.4
Cn1c(O)c(C=Nc2ccccc2-c2ccccc2)c(=O)n(C)c1=O	–	–	> 40

SMILES	IC50 [µM]	IC90 [µM]	CC50 [µM]
c1ccc(-c2nc(NCC3CCCO3)c3ccccc3n2)nc1 (stereo unspecified)	3.11	3.21	> 40
O=C(CNCc1ccco1)Nc1ccc(Oc2ccccc2)cc1	–	> 100	> 40
Cc1nnc(NC(=O)c2ccc3ccccc3c2)o1	0.719	1.46	> 40
Nc1c2c(nc3ccn(Cc4ccccc4)c(=O)c13)CCC2	7.11	15.3	> 40
CCN1CCN(Cc2ccc(NC(=O)c3cc(NC(=O)c4cc(-c5ccc(OC)cc5)n[nH]4)cc(OC)c3)cc2C(F)(F)F)CC1	4.41	5.93	6.28
Oc1c(Cl)cc(Cl)cc1/C=C/c1ccc2cccc(O)c2n1	3.06	> 100	10.1
CC(C)(C)NC(=O)COC(=O)c1cc(Br)ccc1Cl	11.9	> 100	–
CCC(=O)Nc1nc2ccccc2n1Cc1ccc(Cl)cc1	< 0.195	> 100	> 40
CC(C)(C)C1CCc2c(sc(NC(=O)CSc3nnc(-c4ccccc4)o3)c2C#N)C1 (stereo unspecified)	–	> 100	–
CCOC(=O)c1cnn(C(=O)c2ccccc2)c1N	–	> 100	–
Cc1ccc(-n2cc(CN(C)Cc3ncc[nH]3)c(-c3cccc(C)c3)n2)cc1	10.3	13.5	> 40
O=C(NC1CCCCC1)C(c1ccc2ncccc2c1)N(Cc1ccc2c(c1)OCO2)C(=O)c1ccc2c(c1)OCCO2 (stereo unspecified)	12.7	> 100	> 40
CCCOC(=O)c1ccc(NC(=O)C(=O)NCCN(CC)CC)cc1	53.1	> 100	–
CC(C)(C)c1cc(NCCCn2ccnc2)n2ncc(-c3ccc(Cl)cc3)c2n1	0.939	1.43	22.3
COc1ccc(N=C2C(=O)N3c4c(cccc42)C(C)=CC3(C)C)cc1	–	> 100	–
Cc1ccc([N+](=O)[O-])cc1NC(=O)CN(C(=O)c1ccccc1Cl)C1CCCCC1	3.22	5.22	–
CCCCCOC(=O)NCCOC(=O)Nc1ccc(C(=O)OCC)cc1	< 0.195	> 100	> 40
Cc1[nH]n(-c2ccc(Br)cc2)c(=O)c1C=Nc1ccc(S(=O)(=O)Nc2nccs2)cc1	10.9	> 100	> 40
Nc1nc(Nc2cccc(Cl)c2)nc(NCc2ccco2)c1[N+](=O)[O-]	29.9	> 100	> 40
Cc1occc1-c1nnc(SCC(=O)NCCc2ccccc2)o1	15	> 100	–
Cc1cccc(C)c1N1CCN(c2ccc3nnc(C(F)(F)F)n3n2)CC1	11.8	61.8	> 40

SMILES	IC50 [µM]	IC90 [µM]	CC50 [µM]
O=C(Nc1nnc(C2CC2)s1)c1ccccn1	2.75	3.68	15.6
O=C(CSc1nc(-c2ccccc2Cl)ns1)c1ccc(Cl)cc1	8.62	> 100	–
c1ccc(CCNc2ccnc3cc4ccccc4cc23)cc1	1.5	1.69	8.57
CSc1ccc(C(=O)C2CCCN(Cc3cc4ccccc4[nH]3)C2)cc1 (stereo unspecified)	2.43	2.98	> 40
O=S(=O)(Nc1nc2ccccc2nc1Nc1ccc(N2CCOCC2)cc1)c1cc(Cl)ccc1Cl	–	> 100	22.3
O=[N+]([O-])c1cc(-c2n[nH]c(-c3ccccc3)n2)cc([N+](=O)[O-])c1	28.4	> 100	> 40
O=C(CCc1nc(-c2cccs2)no1)Nc1cnc2ccccc2c1	–	> 100	–
CCOC(=O)c1cc(COc2cc(Cl)cc(Cl)c2)on1	3.01	21.6	–
CCCCc1ccc(NC(=O)c2cnccn2)cc1	52.1	> 100	> 40
C=C1C(=O)O[C@@H]2C[C@@H](C)[C@@H]3C=CC(=O)[C@@]3(C)[C@@H](O)[C@H]12	3.84	6.64	1.84
Cc1[nH]n(-c2nc(-c3ccc(Cl)cc3)cs2)c(=O)c1N=Nc1ccc(O)cc1	< 0.195	5.6	15.8
CCC(=O)Nc1cccc(C(=O)/C=C/c2ccccc2)c1	22.1	28.2	10.7
N#C/C(=C(/O)CSc1nnc(Cc2cccs2)n1C1CCCCC1)c1nc2ccccc2[nH]1	–	> 100	–
CC(=O)Nc1nc(-c2cc([N+](=O)[O-])cs2)cs1	< 0.195	> 100	–
Cc1cccc(-c2noc(-c3cc4ccccc4oc3=O)n2)c1	1.28	> 100	–
CCOC(=O)CSc1nnc(-c2ccc([N+](=O)[O-])cc2)o1	0.316	3.84	–
CN(C)c1ccc(N=Nc2nc3ccccc3n2C)cc1	0.939	2.73	> 40
O=C(Oc1c(Cl)cc(Cl)c2cccnc12)c1ccco1	1.28	1.78	10
